These are literature values, as cited in patent US20210368800A1, “Quickly, easily, and economically creating and maintaining a low bio-load on surfaces that may be large and/or of complex contour and finish” (priority 2020, published 2021).

One data set relates to norovirus. The conditions noted are these: at 50 ppm; electrolytically generated hypochlorous acid.

For the molecule `OCl` [hypochlorous acid, Hypochlorous Acid], in the data set on norovirus, the “time to kill norovirus” value is “less than one”. Moreover, in the data set with coronavirus 0C43, the “effective in eliminating coronavirus 0C43” value was “more than 99.999%”.
